Assay results from patent US11572350B1, “Benzothia(di)azepine compounds and their use as bile acid modulators” (Albireo AB, priority 2020, dated 2023).

Assays:
human LBAT = biological target: T1, human LBAT (Homo sapiens, UniProt Q14973); experiment: LBAT (h/m) assay: 3H-taurocholic acid uptake in human LBAT-overexpressing cells; format: cell-based; conditions: 0.3 μM 3H-taurocholic acid and 7.5 μM cold taurocholic acid, 20 minutes, read-out: hLBAT IC50
T1 construct: expressed in transfected cells; kept under Geneticin selection
T1 sequence (Q14973 1-349): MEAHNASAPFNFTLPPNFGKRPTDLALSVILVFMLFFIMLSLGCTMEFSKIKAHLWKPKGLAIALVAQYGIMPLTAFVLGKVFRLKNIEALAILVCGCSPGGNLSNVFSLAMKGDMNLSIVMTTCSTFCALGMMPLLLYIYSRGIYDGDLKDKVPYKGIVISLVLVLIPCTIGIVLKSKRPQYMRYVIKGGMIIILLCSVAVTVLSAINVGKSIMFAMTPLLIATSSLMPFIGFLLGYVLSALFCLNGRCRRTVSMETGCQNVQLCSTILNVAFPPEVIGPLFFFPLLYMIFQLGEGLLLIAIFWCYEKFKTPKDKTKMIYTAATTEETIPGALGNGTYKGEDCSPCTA
Procedure: LBAT (h/m) Assay Protocol
20,000 cells (Human or Mouse LBAT-overexpressing cells) were seeded in 96-wells plate (Corning CLS3809) in 100 μL MEM-alpha medium (Gibco 12571-063) supplemented with 10% FBS (Gibco 10438026) containing Geneticin (Gibco 10131-027) (1 mg/mL) and incubated at 37° C. in 5% CO2 for 24 hours. After incubation, media was decanted from the wells and cells were washed two times with 300 μL of basal MEM-alpha medium (FBS-free). After decanting basal MEM-alpha medium each time, plates were tapped against paper towel to ensure maximum removal of residual media. For human LBAT, incubation mix was prepared by adding test inhibitor dilutions (3-fold serial dilution in DMSO (Sigma D2650), 10 points) in MEM-alpha (without FBS) containing 0.3 μM 3H-taurocholic acid (ARC ART-1368) and 7.5 μM cold taurocholic acid (Sigma T4009) (maintaining 0.2% final DMSO concentration). For mouse LBAT, incubation mix was prepared by adding test inhibitor dilutions (3-fold serial dilution in DMSO, 10 points) in MEM-alpha (without FBS) containing 0.3 μM 3H-taurocholic acid and 25 μM cold taurocholic acid maintaining 0.2% final DMSO concentration). 50 μL of incubation mix containing test inhibitors was then added to the wells (in duplicate) and the plates were incubated for 20 minutes in a CO2 incubator at 37° C. After incubation, the reaction was stopped by keeping the plates on ice water mix for 2-3 minutes and then the incubation mix was aspirated completely from the wells. The wells were washed two times with 250 μL of chilled unlabelled 1 mM taurocholic acid dissolved in HEPES (Gibco 15630080)-buffered (10 mM) HBSS (Gibco 14175079) (pH 7.4). The plates were tapped against a paper towel after every wash to ensure maximum removal of blocking buffer.
100 μL of MicroScint-20 (PerkinElmer 6013621) was added to the wells and kept overnight at room temperature before reading the plates in TopCount NXT™ Microplate Scintillation and Luminescence Counter from PerkinElmer under 3H Test protocol (set at 120 seconds reading time per well, with normal plate orientation).
(§1) Preparation of Test Compound Dilutions
(§2) All test compounds were provided in powder form at room temperature. 10 mM DMSO stocks of the test compounds were prepared, aliquoted and stored at −20° C. From the 10 mM DMSO stock of the compounds, a 3-fold serial dilution in DMSO was prepared to get a total of 10 dilutions of the test compounds. 0.5 μL of this dilution in DMSO was added to 250 μL of FBS-free basal media containing 3H-taurocholic acid and cold taurocholic acid to prepare the incubation mixture.

human IBAT = biological target: T2, human IBAT (Homo sapiens, UniProt Q12908); experiment: IBAT (h/m) assay: 3H-taurocholic acid uptake in human IBAT-overexpressing cells; format: cell-based; conditions: 0.25 μM 3H-taurocholic acid and 5 μM cold taurocholic acid, 20 minutes, highest test concentration 10 μM, read-out: hIBAT IC50
T2 construct: expressed in transfected cells; kept under Puromycin selection
T2 sequence (Q12908 1-348): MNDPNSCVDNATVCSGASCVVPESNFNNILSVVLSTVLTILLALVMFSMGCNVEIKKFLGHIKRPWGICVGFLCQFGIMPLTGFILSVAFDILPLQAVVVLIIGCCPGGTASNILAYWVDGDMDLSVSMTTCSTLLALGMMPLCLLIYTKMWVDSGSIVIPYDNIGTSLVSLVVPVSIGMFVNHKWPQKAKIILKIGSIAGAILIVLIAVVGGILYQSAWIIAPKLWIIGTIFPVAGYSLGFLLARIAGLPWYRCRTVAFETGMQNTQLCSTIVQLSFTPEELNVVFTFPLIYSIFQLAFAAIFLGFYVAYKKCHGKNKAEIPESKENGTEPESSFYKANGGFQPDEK
Procedure: IBAT (h/m) Assay Protocol
10,000 cells (Human or Mouse IBAT-overexpressing cells) were seeded in 96-wells plate (Corning CLS3809) in 200 μL MEM-alpha medium (Gibco 12571-063) supplemented with 10% FBS (Gibco 10438026) containing Puromycin (Gibco A1113803) (10 μg/mL) and incubated at 37° C. in 5% CO2 for 48 hours. After incubation, media was decanted from the wells and cells were washed two times with 300 μL of basal MEM-alpha medium (FBS-free). After decanting basal MEM-alpha medium each time, plates were tapped against paper towel to ensure maximum removal of residual media. Test inhibitor dilutions (highest test concentration being 10 μM, 3-fold serial dilution, 10 points) prepared in DMSO (Sigma D2650) were added in incubation mix (maintaining 0.2% final DMSO concentration) containing 0.25 μM 3H-taurocholic acid (ARC ART-1368) and 5 μM of cold taurocholic acid (Sigma T4009). 50 μL of incubation mix containing test inhibitors was then added to the wells (in duplicate) and the plates were incubated for 20 minutes in a CO2 incubator at 37° C. After incubation, the reaction was stopped by keeping the plates on ice water mix for 2-3 minutes and then the incubation mix was aspirated completely from the wells. The wells were washed two times with 250 μL of chilled unlabelled 1 mM taurocholic acid dissolved in HEPES (Gibco 15630080)-buffered (10 mM) HBSS (Gibco 14175079) (pH 7.4). The plates were tapped against a paper towel after every wash to ensure maximum removal of blocking buffer.
100 μL of MicroScint-20 (PerkinElmer 6013621) was added to the wells and kept overnight at room temperature before reading the plates in TopCount NXT™ Microplate Scintillation and Luminescence Counter from PerkinElmer under 3H Test protocol (set at 120 seconds reading time per well).
as §1, §2

OATP KO mice = experiment: Effect of LBAT selective compounds on serum bile acid levels in OATP KO mice; format: in vivo; conditions: male OATP KO mice; for Effect on serum bile acid levels: oral dosing at the indicated doses, FIGS. 1 to 4, n=4
Description: Effect of LBAT Selective Compounds on Serum Bile Acid Levels in OATP KO Mice
Male OATP KO mice (Oatp1a/1b cluster knockout mice, Taconic, USA) aged 8 to 9 weeks were used in the studies. After completion of quarantine and acclimatization period, animals were randomized based on body weight into experimental groups (n=4 mice in each). On the experimental day, a baseline blood sample was collected followed by oral dosing of vehicle (0.5% CMC, 0.1% Tween 80) or compound of Example 3, 6, 13 or 15 at the indicated doses. Blood samples were then collected at various time points after dose (indicated in each graph). Blood was allowed to clot, and serum was collected by centrifugation at 3000 g, 4° C. for 15 minutes and stored at −80° C. for further analysis. The total bile acid concentration in each serum sample was determined by using the CELL BIOLABS Total Bile Acids kit (STA631) according to manufacturer's instructions. Mean±SEM, n=4.

[1] = Bidirectional permeability assay (Caco-2 cells); format: in vitro ADME; conditions: human, FaSSIF donor buffer, 120 minutes at 37° C.; for Papp A→B at 120 min, 10 µM: Caco-2, pH 7.4, absorptive direction (A2B); for Papp B→A at 120 min, 10 µM: Caco-2, pH 7.4, secretory direction (B2A)
Description: (§3) Bidirectional Permeability Assay (Caco-2 Cells)
(§4) HepaRG-Based Assay Protocol

Caco-2 cells = experiment: Bidirectional permeability assay (Caco-2 cells); format: in vitro ADME; conditions: absorptive direction (A2B); FaSSIF donor buffer; 120 minutes at 37° C.
Description: as §3, §4

IC50 (human LBAT) [nM] | IC50 (human IBAT) [nM] | Papp A→B at 120 min, 10 µM [1] [×10⁻⁶ cm/s] | Papp B→A at 120 min, 10 µM [1] [×10⁻⁶ cm/s] | Permeability (Caco-2) Papp A2B (Caco-2 cells) [×10⁻⁶ cm/s] | SMILES | Serum bile acids level (OATP KO mice; 30 mg/kg oral, within one hour after dosing, pre-dose/vehicle 1 to 5 μmol/L) | Effect on serum bile acid levels (OATP KO mice)
2.8 | 4890 | 1.8 | 6.9 | – | CCCCC1CN(c2ccccc2)c2cc(SCC)c(O/C=C(\F)C(=O)O)cc2S(=O)(=O)C1 (racemic) [Example 13, (Z)-3-((3-butyl-7-(ethylthio)-1,1-dioxido-5-phenyl-2,3,4,5-tetrahydro-1,5-benzothiazepin-8-yl)oxy)-2-fluoroacrylic acid] | about 100 μmol/L | increased serum bile acids in a dose-dependent manner
1.6 | 2020 | 10.5 | 17.1 | – | CCCCC1CN(c2ccc(F)cc2)c2cc(SC)c(O/C=C/C(=O)O)cc2S(=O)(=O)N1 (single isomer, unassigned) [Example 3, (E)-3-((3-butyl-5-(4-fluorophenyl)-7-(methylthio)-1,1-dioxido-2,3,4,5-tetrahydro-1,2,5-benzothiadiazepin-8-yl)oxy)acrylic acid] | – | increased serum bile acid levels
1.2 | > 3330 | – | 5.3 | 1.3 | CCCCC1CN(c2ccccc2)c2cc(SCC)c(O/C=C(\F)C(=O)O)cc2S(=O)(=O)C1 (single isomer, unassigned) [Example 15, (Z)-3-((3-butyl-7-(ethylthio)-1,1-dioxido-5-phenyl-2,3,4,5-tetrahydro-1,5-benzothiazepin-8-yl)oxy)-2-fluoroacrylic acid] | – | increased serum bile acid levels
